# From PubChem BioAssay (NCI)
#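 Each compound was tested at five concentrations against cells in 96-well plates for 48 hours. TGI denotes the concentration required for complete inhibition of growth.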
# Experiments:
# Test in all cases: DTP human tumour cell line panel, 48 h
# 786-0 renal = tested on: 786-0 renal
# A549 NSCLC = tested on: A549 NSCLC
# ACHN renal = tested on: ACHN renal
# BT-549 breast = tested on: BT-549 breast
# CCRF-CEM leukemia = tested on: CCRF-CEM leukemia
# COLO 205 colon = tested on: COLO 205 colon
# DU-145 prostate = tested on: DU-145 prostate
# EKVX NSCLC = tested on: EKVX NSCLC
# HCC-2998 colon = tested on: HCC-2998 colon
# HCT-116 colon = tested on: HCT-116 colon
# HCT-15 colon = tested on: HCT-15 colon
# HOP-62 NSCLC = tested on: HOP-62 NSCLC
# HOP-92 NSCLC = tested on: HOP-92 NSCLC
# HS 578T breast = tested on: HS 578T breast
# HT29 colon = tested on: HT29 colon
# IGROV1 ovarian = tested on: IGROV1 ovarian
# K-562 leukemia = tested on: K-562 leukemia
# KM12 colon = tested on: KM12 colon
# LOX IMVI melanoma = tested on: LOX IMVI melanoma
# M14 melanoma = tested on: M14 melanoma
# MCF7 breast = tested on: MCF7 breast
# MDA-MB-231 breast = tested on: MDA-MB-231 breast
# MDA-MB-435 = tested on: MDA-MB-435
# MDA-N = tested on: MDA-N
# MOLT-4 leukemia = tested on: MOLT-4 leukemia
# NCI-H23 lung = tested on: NCI-H23 lung
# NCI-H522 lung = tested on: NCI-H522 lung
# NCI/ADR-RES ovarian = tested on: NCI/ADR-RES ovarian
# OVCAR-3 ovarian = tested on: OVCAR-3 ovarian
# OVCAR-4 ovarian = tested on: OVCAR-4 ovarian
# OVCAR-5 ovarian = tested on: OVCAR-5 ovarian
# OVCAR-8 ovarian = tested on: OVCAR-8 ovarian
# PC-3 prostate = tested on: PC-3 prostate
# RPMI-8226 leukemia = tested on: RPMI-8226 leukemia
# RXF 393 renal = tested on: RXF 393 renal
# SF-268 CNS = tested on: SF-268 CNS
# SF-295 CNS = tested on: SF-295 CNS
# SF-539 CNS = tested on: SF-539 CNS
# SK-MEL-2 melanoma = tested on: SK-MEL-2 melanoma
# SK-MEL-28 melanoma = tested on: SK-MEL-28 melanoma
# SK-MEL-5 melanoma = tested on: SK-MEL-5 melanoma
# SK-OV-3 ovarian = tested on: SK-OV-3 ovarian
# SN12C renal = tested on: SN12C renal
# SNB-19 CNS = tested on: SNB-19 CNS
# SNB-75 CNS = tested on: SNB-75 CNS
# SR leukemia = tested on: SR leukemia
# SW-620 colon = tested on: SW-620 colon
# TK-10 renal = tested on: TK-10 renal
# U251 CNS = tested on: U251 CNS
# UACC-257 melanoma = tested on: UACC-257 melanoma
# UACC-62 melanoma = tested on: UACC-62 melanoma
# UO-31 renal = tested on: UO-31 renal
smiles,measurement,setting,value
O=c1[nH]nc(-c2ccccc2)n1/N=C/c1c(O)ccc2ccccc12,TGI,786-0 renal,> 100 µM
same,TGI,A549 NSCLC,> 100 µM
same,TGI,ACHN renal,> 100 µM
same,TGI,BT-549 breast,> 100 µM
same,TGI,CCRF-CEM leukemia,> 100 µM
same,TGI,COLO 205 colon,> 100 µM
same,TGI,DU-145 prostate,> 100 µM
same,TGI,EKVX NSCLC,> 100 µM
same,TGI,HCC-2998 colon,> 100 µM
same,TGI,HCT-116 colon,> 100 µM
same,TGI,HCT-15 colon,> 100 µM
same,TGI,HOP-62 NSCLC,> 100 µM
same,TGI,HOP-92 NSCLC,> 100 µM
same,TGI,HS 578T breast,50.4 µM
same,TGI,HT29 colon,> 100 µM
same,TGI,IGROV1 ovarian,> 100 µM
same,TGI,K-562 leukemia,> 100 µM
same,TGI,KM12 colon,> 100 µM
same,TGI,LOX IMVI melanoma,> 100 µM
same,TGI,M14 melanoma,> 100 µM
same,TGI,MCF7 breast,> 100 µM
same,TGI,MDA-MB-231 breast,> 100 µM
same,TGI,MDA-MB-435,> 100 µM
same,TGI,MDA-N,> 100 µM
same,TGI,MOLT-4 leukemia,> 100 µM
same,TGI,NCI-H23 lung,> 100 µM
same,TGI,NCI-H522 lung,> 100 µM
same,TGI,NCI/ADR-RES ovarian,> 100 µM
same,TGI,OVCAR-3 ovarian,43.2 µM
same,TGI,OVCAR-4 ovarian,45.7 µM
same,TGI,OVCAR-5 ovarian,> 100 µM
same,TGI,OVCAR-8 ovarian,> 100 µM
same,TGI,PC-3 prostate,> 100 µM
same,TGI,RPMI-8226 leukemia,> 100 µM
same,TGI,RXF 393 renal,85.2 µM
same,TGI,SF-268 CNS,> 100 µM
same,TGI,SF-295 CNS,82.4 µM
same,TGI,SF-539 CNS,> 100 µM
same,TGI,SK-MEL-2 melanoma,> 100 µM
same,TGI,SK-MEL-28 melanoma,> 100 µM
same,TGI,SK-MEL-5 melanoma,> 100 µM
same,TGI,SK-OV-3 ovarian,68.4 µM
same,TGI,SN12C renal,> 100 µM
same,TGI,SNB-19 CNS,85.4 µM
same,TGI,SNB-75 CNS,93.6 µM
same,TGI,SR leukemia,> 100 µM
same,TGI,SW-620 colon,> 100 µM
same,TGI,TK-10 renal,> 100 µM
same,TGI,U251 CNS,86.4 µM
same,TGI,UACC-257 melanoma,> 100 µM
same,TGI,UACC-62 melanoma,> 100 µM
same,TGI,UO-31 renal,> 100 µM
